Test results: patent US20090036555A1, “Stabilization of iodine biocides” (priority 2005, published 2009)

Assay: Storage stability of IPBC in Dowanol TPM solution with cobalt dryer and stabilizer, IPBC amount by HPLC
Assay type: physicochemical
Settings: solution in Dowanol TPM with 10% by weight IPBC, 5% by weight Octasoligen-Cobalt 8, 5% by weight stabilizer; for Amount of IPBC (2 weeks, 40° C.): after two weeks storage at 40° C.; for Amount of IPBC (start): at the beginning
Experimental: A solution is prepared in Dowanol TPM (tripropylene glycol methyl ether), containing 10% by weight of iodopropargyl butylcarbamate, 5% by weight of Octasoligen-Cobalt 8 (Borchers, Langenfeld, Germany) and 5% by weight of the stabilizer specified in Table 1. The compositions are stored at 40° C. The amount of IPBC was determined by means of HPLC at the beginning and after two weeks.

Amount of IPBC (2 weeks, 40° C.) [%] | Amount of IPBC (start) [%] | SMILES
10.4 | 11.3 | OCCc1ccc(O)c(-n2nc3ccccc3n2)c1 [Example 1]
9.3 | 9.9 | C=C(C)C(=O)OCCc1ccc(O)c(-n2nc3ccccc3n2)c1 [Example 2]
9.5 | 9.9 | CC(C)(C)CC(C)(C)c1ccc(O)c(-n2nc3ccccc3n2)c1 [Example 3]
9.3 | 9.9 | Cc1ccc(O)c(-n2nc3ccccc3n2)c1 [Example 4]

SMILES | Amount of IPBC (2 weeks, 40° C.) [%] | Amount of IPBC (start) [%]
CC(C)(C)c1ccc(O)c(-n2nc3ccccc3n2)c1 [Example 5] | 9.8 | 9.8
